Laboratory results as given in ChEMBL document CHEMBL5291721, “A preclinical secondary pharmacology resource illuminates target-adverse drug reaction associations of marketed drugs” (Nat Commun, 2023).

Assays:
[1] = molecular target: T1, B2 bradykinin receptor (Homo sapiens, UniProt P30411)
T1 sequence (P30411 whole entry): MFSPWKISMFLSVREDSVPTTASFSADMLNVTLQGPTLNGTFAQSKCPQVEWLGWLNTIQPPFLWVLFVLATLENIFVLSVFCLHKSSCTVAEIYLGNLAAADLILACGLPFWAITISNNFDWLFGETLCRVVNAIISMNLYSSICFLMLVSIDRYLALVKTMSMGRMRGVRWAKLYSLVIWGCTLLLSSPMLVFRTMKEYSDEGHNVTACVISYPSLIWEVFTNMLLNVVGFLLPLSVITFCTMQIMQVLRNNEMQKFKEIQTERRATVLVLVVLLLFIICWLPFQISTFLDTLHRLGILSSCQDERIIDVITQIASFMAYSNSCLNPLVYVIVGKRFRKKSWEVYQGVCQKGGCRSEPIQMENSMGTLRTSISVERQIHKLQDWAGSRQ

[2] = molecular target: T2, Cannabinoid receptor 1 (Homo sapiens, UniProt P21554); type: functional, cell-based
[3] = molecular target: T3, Cholecystokinin receptor type A (Homo sapiens, UniProt P32238)
T3 sequence (P32238 whole entry): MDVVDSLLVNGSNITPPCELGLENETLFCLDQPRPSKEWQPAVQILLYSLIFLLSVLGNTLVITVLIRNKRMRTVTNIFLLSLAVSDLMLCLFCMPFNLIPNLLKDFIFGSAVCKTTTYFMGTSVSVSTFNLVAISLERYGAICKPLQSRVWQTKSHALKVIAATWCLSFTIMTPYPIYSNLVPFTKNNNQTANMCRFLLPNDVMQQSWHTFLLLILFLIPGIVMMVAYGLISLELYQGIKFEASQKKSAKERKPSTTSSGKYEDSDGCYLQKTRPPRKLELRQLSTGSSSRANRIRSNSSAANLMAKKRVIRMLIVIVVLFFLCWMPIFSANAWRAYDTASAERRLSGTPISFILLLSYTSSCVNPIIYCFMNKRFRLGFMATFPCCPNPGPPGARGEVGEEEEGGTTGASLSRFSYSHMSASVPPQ

[4] = molecular target: Beta-2 adrenergic receptor (Homo sapiens, UniProt P07550); type: functional, cell-based
[5] = molecular target: T4, Androgen receptor (Rattus norvegicus, UniProt P15207); type: functional
T4 sequence (P15207 whole entry): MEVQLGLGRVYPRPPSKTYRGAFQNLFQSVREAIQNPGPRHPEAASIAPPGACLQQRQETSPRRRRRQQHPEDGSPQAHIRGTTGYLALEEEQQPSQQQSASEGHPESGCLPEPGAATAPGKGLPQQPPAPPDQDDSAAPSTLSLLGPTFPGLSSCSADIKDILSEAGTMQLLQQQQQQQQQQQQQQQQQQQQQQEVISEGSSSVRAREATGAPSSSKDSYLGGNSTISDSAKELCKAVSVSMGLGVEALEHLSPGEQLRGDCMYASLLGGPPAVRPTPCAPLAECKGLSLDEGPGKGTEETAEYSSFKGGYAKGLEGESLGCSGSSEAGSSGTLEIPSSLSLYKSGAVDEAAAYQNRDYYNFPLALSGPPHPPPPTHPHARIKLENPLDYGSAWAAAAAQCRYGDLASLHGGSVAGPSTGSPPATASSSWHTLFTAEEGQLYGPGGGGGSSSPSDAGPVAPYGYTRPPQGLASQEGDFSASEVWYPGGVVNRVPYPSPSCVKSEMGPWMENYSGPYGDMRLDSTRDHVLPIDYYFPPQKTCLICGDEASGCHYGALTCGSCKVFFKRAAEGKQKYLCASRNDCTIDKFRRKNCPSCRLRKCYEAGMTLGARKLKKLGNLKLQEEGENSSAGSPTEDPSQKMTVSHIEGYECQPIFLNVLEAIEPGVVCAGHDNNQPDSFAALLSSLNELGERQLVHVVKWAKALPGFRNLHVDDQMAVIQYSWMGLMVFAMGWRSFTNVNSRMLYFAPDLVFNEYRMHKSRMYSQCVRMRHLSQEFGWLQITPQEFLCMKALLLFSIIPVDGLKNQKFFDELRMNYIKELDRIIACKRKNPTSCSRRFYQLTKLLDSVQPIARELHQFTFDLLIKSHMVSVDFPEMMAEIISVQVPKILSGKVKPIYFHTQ

[6] = molecular target: Adenosine receptor A2a (Homo sapiens, UniProt P29274)
[7] = molecular target: T5, Gastrin/cholecystokinin type B receptor (Homo sapiens, UniProt P32239)
T5 sequence (P32239 whole entry): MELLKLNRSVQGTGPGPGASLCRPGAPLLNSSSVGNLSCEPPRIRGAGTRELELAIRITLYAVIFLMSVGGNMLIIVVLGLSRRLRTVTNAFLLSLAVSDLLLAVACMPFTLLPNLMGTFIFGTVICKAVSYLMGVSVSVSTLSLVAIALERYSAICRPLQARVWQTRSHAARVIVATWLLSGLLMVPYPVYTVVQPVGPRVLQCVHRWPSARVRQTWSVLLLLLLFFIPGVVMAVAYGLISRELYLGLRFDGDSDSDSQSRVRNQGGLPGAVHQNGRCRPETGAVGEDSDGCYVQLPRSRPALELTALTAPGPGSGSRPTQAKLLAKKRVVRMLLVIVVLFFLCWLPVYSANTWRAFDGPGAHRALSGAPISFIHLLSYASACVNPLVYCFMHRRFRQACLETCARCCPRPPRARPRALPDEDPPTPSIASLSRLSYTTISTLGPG

[8] = molecular target: Kappa-type opioid receptor (Homo sapiens, UniProt P41145)
[9] = molecular target: T6, Muscarinic acetylcholine receptor M2 (Homo sapiens, UniProt P08172); type: functional, cell-based
T6 sequence (P08172 whole entry): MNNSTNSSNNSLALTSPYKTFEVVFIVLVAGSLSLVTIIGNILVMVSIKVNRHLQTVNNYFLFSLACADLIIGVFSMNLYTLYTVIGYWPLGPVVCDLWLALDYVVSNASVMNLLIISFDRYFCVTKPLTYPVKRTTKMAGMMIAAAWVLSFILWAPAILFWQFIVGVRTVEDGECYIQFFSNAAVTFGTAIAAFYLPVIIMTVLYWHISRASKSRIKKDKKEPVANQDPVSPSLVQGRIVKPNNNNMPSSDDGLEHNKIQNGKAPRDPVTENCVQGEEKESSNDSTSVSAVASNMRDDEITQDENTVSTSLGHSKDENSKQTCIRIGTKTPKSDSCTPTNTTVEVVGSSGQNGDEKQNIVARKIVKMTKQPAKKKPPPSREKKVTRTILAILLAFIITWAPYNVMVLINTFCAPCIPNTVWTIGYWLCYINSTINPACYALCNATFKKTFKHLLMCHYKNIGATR

[10] = molecular target: T2, Cannabinoid receptor 1
Also: assay procedure not described here.

Sequence of Kappa-type opioid receptor (P41145 whole entry): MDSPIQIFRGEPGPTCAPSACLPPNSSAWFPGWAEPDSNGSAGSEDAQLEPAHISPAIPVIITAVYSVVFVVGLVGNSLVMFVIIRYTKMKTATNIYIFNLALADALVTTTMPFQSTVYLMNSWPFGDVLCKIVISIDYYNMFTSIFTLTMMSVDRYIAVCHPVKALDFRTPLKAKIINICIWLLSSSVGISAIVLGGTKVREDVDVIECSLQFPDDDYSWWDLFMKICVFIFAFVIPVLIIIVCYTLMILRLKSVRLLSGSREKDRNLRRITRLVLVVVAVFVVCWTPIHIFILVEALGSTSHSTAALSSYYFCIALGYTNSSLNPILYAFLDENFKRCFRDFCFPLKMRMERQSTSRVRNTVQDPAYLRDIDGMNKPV
Sequence of Beta-2 adrenergic receptor (P07550 whole entry): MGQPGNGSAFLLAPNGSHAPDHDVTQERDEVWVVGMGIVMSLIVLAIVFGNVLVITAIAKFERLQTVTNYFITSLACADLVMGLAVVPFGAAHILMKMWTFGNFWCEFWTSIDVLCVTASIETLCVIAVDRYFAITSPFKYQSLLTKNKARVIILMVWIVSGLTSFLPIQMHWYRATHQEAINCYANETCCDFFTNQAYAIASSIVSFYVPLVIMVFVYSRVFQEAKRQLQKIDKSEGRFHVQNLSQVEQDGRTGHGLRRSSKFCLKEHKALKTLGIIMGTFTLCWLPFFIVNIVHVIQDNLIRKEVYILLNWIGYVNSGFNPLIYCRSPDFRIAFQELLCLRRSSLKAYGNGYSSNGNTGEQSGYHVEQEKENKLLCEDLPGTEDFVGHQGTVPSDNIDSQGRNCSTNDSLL
T2 sequence (P21554 whole entry): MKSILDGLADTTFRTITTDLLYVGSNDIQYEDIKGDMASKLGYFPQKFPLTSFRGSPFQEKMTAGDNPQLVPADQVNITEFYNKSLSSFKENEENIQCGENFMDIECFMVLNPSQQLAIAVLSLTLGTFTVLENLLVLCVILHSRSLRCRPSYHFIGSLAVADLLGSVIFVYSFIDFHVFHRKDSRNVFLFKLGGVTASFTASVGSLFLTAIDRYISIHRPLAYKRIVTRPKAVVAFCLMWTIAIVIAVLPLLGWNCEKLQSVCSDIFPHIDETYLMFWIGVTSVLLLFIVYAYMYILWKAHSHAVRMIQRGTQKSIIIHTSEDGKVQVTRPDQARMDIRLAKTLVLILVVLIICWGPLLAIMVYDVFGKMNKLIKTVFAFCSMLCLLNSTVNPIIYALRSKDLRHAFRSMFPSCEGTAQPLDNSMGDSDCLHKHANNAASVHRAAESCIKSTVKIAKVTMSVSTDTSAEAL
Sequence of Adenosine receptor A2a (P29274 whole entry): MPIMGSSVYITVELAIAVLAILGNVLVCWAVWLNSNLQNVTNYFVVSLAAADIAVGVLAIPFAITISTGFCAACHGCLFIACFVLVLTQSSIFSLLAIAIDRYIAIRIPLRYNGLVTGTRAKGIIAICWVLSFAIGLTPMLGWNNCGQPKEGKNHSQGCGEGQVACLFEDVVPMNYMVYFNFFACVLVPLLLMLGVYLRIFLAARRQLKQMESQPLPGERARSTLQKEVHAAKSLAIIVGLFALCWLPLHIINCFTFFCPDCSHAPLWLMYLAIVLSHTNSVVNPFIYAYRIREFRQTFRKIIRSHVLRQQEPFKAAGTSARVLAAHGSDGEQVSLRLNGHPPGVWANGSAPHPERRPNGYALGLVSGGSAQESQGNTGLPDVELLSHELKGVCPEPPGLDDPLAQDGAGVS

Row | SMILES | AC50 [1] [µM] | AC50 [2] [µM] | AC50 [3] [µM] | AC50 [4] [µM] | AC50 [5] [µM] | AC50 [6] [µM] | AC50 [7] [µM] | AC50 [8] [µM] | AC50 [9] [µM] | AC50 [10] [µM]
1 | N#Cc1ccccc1-c1cc(-c2ccccn2)cn(-c2ccccc2)c1=O | > 30 | > 30 | > 30 | > 30 | > 30 | > 30 | > 30 | > 30 | > 30 | 
2 | C=C[C@@]1(C)CC(=O)[C@]2(O)[C@@]3(C)[C@@H](O)CCC(C)(C)[C@@H]3[C@H](OC(=O)CCN(C)C)[C@H](OC(C)=O)[C@@]2(C)O1 | > 30 | > 30 | > 30 |  | > 30 | > 30 | > 30 | > 30 | > 30 | 
3 | Nc1ccc(C(=O)O)c(O)c1 [AMINOSALICYLIC ACID] | > 30 | > 30 | > 30 | > 30 | > 30 | > 30 | > 30 | > 30 | > 30 | 
4 | O=C(CCCN1CCC(n2c(O)nc3ccccc32)CC1)c1ccc(F)cc1 [BENPERIDOL] | > 30 | > 30 | > 30 | > 30 | 7.1 | > 30 | > 30 | 1.15 | 2.64 | 
5 | COc1cc(OC)c(C(=O)CCCN2CCCC2)c(OC)c1 [BUFLOMEDIL] | > 30 | > 30 | > 30 |  | > 30 | > 30 | > 30 | 4.3 | > 30 | 
6 | CCCCC1(CC)C(=O)NC(=O)NC1=O [BUTETHAL] | > 30 | > 30 | > 30 | > 30 | > 30 | > 30 | > 30 | > 30 | > 30 | 
7 | CCC(C)(Oc1ccc(C2(c3ccc(OC(C)(CC)C(=O)O)cc3)CCCCC2)cc1)C(=O)O (centres undefined) [CLINOFIBRATE] | > 30 | > 30 | > 30 |  | > 30 | > 30 | > 30 | > 30 | > 30 | 
8 | C[C@@H]1C[C@H]2[C@@H]3C[C@H](F)C4=CC(=O)C=C[C@]4(C)[C@@]3(F)[C@@H](O)C[C@]2(C)[C@H]1C(=O)CO [DIFLUCORTOLONE] |  |  |  |  | 2.6 |  |  |  |  | 
9 | CCCCC[C@H](O)/C=C/[C@H]1[C@H](O)CC(=O)[C@@H]1C/C=C\CCCC(=O)O [DINOPROSTONE] | > 30 | > 30 | > 30 |  | > 30 | > 30 | > 30 | 22 | > 30 | 
10 | O=C(O)c1ccccc1Nc1cccc(C(F)(F)F)c1 [FLUFENAMIC ACID] | > 30 | > 30 | > 30 | > 30 |  | > 30 | > 30 | > 30 | > 10 | > 10
11 | CCCCCCOC(=O)CCC(=O)CN [HEXAMINOLEVULINATE] | > 30 | > 30 | > 30 | > 30 | > 30 | > 30 | > 30 | > 30 | > 30 | 
12 | COC1=C(OC)C(=O)C(CCCCCCCCCCO)=C(C)C1=O [IDEBENONE] | > 30 | > 30 | > 30 | > 30 |  | > 30 | > 30 | > 10 | > 10 | > 10
13 | CC1(C)C(/C=C/C=C/C=C/C=C2\N(CCCCS(=O)(=O)O)c3ccc4ccccc4c3C2(C)C)=[N+](CCCCS(=O)(=O)[O-])c2ccc3ccccc3c21 [INDOCYANINE GREEN ACID FORM] | 26 | 9.3 | 19 | > 30 | > 30 | > 30 | 9.2 | 13 |  | 
14 | CC(C)OC(=O)C(C(=O)OC(C)C)=C1SC=CS1 [MALOTILATE] | > 30 | > 30 | > 30 |  | > 30 | > 30 | > 30 | > 30 | > 30 | 
15 | O=C1CN=C(c2ccccc2)c2cc(Cl)ccc2N1 [NORDAZEPAM] | > 30 | > 30 | > 30 | > 30 |  | > 30 | > 30 | 9.97 | > 10 | > 10
16 | CC(CCc1ccccc1)NC(C)C(O)c1ccc(O)cc1 (centres undefined) [NYLIDRIN] | > 30 | > 30 | > 30 | 0.082 |  | > 30 | > 30 | 4.98 | > 10 | > 10
17 | O=C1Nc2ccc(Cl)cc2C(c2ccccc2)=NC1O (centres undefined) [OXAZEPAM] | > 30 | > 30 | > 30 | > 30 |  | > 30 | > 30 | > 10 | > 10 | > 10
18 | CCN(CC)CC(=O)Oc1ccc(NC(C)=O)cc1 [PROPACETAMOL] | > 30 | > 30 | > 30 |  | > 30 | > 30 | > 30 | 18 | > 30 | 
19 | Cc1cc2nc3c(=O)[nH]c(=O)nc-3n(C[C@H](O)[C@H](O)[C@H](O)COP(=O)(O)O)c2cc1C [RIBOFLAVIN 5'-PHOSPHATE] | > 30 |  | > 30 | 2.9 | > 30 | > 30 | > 30 | > 30 |  | 
